In patent publication US20220402935A1, “HETEROCYCLIC COMPOUND” (FIMECS, INC., priority 2019, published 2022):

Tests used:
[1] = biological target: T1, human XIAP_BIR3 domain purified protein (Homo sapiens, UniProt P98170); experiment: XIAP binding inhibitory activity (HTRF, b-Smac ligand); conditions: second symbol of cell; read-out: XIAP binding inhibition IC50 value
T1 construct: purchased R & D
In short: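 HTRF competition between compound and C-terminally biotinylated Smac peptide AVPIAQK for His-tagged XIAP BIR3, both diluted to 90 nM before addition, in pH 7.5 HEPES/NaCl/BSA/Triton buffer. Eu-cryptate anti-His and streptavidin-XL665 added, ≥4 h at room temperature in the dark; inhibition % from 665/615 nm ratio versus no-compound wells.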

IRAK-M [2] = biological target: T2, IRAK-M (Homo sapiens, UniProt Q9Y616); experiment: In vitro degradation activity of target protein (IRAK-M ELISA in THP1 cells); assay type: cell-based; parameters: host or cells: THP1 cells; conditions: 24 hours, second symbol of cell, read-out: IRAK-M 50% degradation concentration (DC50 value)
T2 sequence (Q9Y616 1-596): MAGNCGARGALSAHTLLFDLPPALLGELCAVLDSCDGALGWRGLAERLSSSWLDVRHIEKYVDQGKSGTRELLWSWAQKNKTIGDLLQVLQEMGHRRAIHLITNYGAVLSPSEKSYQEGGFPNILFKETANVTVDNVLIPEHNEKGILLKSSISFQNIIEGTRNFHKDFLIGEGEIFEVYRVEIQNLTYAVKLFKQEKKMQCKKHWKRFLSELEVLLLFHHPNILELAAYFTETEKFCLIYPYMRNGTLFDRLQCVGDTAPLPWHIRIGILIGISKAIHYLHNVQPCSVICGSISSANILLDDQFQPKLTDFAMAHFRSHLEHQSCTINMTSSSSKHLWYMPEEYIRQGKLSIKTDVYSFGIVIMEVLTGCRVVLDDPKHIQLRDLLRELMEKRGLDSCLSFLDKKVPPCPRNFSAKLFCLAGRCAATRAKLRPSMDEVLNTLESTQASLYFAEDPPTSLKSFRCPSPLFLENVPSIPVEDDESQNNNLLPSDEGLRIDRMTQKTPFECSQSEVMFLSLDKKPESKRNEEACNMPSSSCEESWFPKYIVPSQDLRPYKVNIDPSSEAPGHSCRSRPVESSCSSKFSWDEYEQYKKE
Procedure: In vitro degradation activities of target protein of the example compounds were evaluated using Enzyme-linked immuno-sorbent assay (ELISA) by the following assay steps. THP1 cells (ATCC, TIB-202) were cultured in RPMI-1640 supplemented with 10% FBS, lx sodium pyruvate, lx HEPES, D-(+)-glucose and 1% penicillin/streptomycin. THP1 cells were seeded at a density of 1×10^6 cells/well in 24-well plate and treated with DMSO control or test compound, and then incubated for 24 hours. The cells were collected and lysed on ice for 30 minutes in lysis buffer (PBS containing 0.1% Triton X-100) containing a protease inhibitor cocktail (Roche, Cat #11836170001). The lysates were sonicated for 30 sec ON/30 sec OFF for ten cycles and centrifuged for 10 minutes at 13k rpm at 4° C. Protein concentrations were determined by the BCA assay (Sigma, Cat #QPBCA-1KT). The ELISA assay was performed using the Human IRAK3/IRAKM/IRAK-M ELISA Kit (LifeSpan BioSciences, Cat #LS-F35271), and the protein levels of IRAK-M were evaluated according to the kit protocol. As to the IRAK-M degradation rate of test compounds, protein degradation rate (%) when the concentration of the test compound is […] described as A≥75%, 50%≤B<75%, 25%≤C<50%, D<25%, or 50% degradation concentration (DC50 value) described as A<0.03 μM, 0.03 μM≤B<0.1 μM, 0.1 μM≤C<0.3 μM, 0.3 μM≤D<1 μM, is shown in the table below.

IRAK-M [3] = biological target: T2, IRAK-M; experiment: IRAK-M binding inhibitory activity (KINOMEscan active site-dependent competitive assay); parameters: purchased Eurofins Discover X; conditions: concentration of the test compound 1 μM; first symbol of cell; read-out: IRAK-M binding inhibition activity % Ctrl
In short: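 Readout given as % Ctrl, with DMSO as 100% and a control compound as 0%, scaling the test compound signal between them. Binding to human IRAK-M was assessed by KINOMEscan competition at the kinase active site.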

T1 sequence (P98170 252-356 limits assumed): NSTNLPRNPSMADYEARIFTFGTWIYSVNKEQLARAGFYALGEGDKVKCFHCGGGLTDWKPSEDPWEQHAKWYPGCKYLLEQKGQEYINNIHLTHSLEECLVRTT

Structure (SMILES): CN[C@@H](C)C(=O)N[C@H](C(=O)N1CCC[C@H]1c1nc(C(=O)c2cccc(OCCOCCOCCOc3cc(CN4CCC(Oc5ccnc6ccsc56)CC4)on3)c2)cs1)C1CCCCC1 [Example 59, (S)-N-((S)-1-cyclohexyl-2-oxo-2-((S)-2-(4-(3-(2-(2-(2-((5-((4-(thieno[3,2-b]pyridin-7-yloxy)piperidin-1-yl)methyl)isoxazol-3-yl)oxy)ethoxy)ethoxy)ethoxy)benzoyl)thiazol-2-yl)pyrrolidin-1-yl)ethyl)-2-(methylamino)propanamide]
- IC50 [1]: < 300 nM
- DC50 (IRAK-M [2]): 300 to 1000 nM
- remaining binding at 1 µM (IRAK-M [3]): < 25%
